# Results as given in patent US11179348B2, “Combination comprising pterostilbene for the treatment of cancer” (FUNDACIÓN UNIVERSIDAD CATÓLICA DE VALENCIA SAN VICENTE …, priority 2015, dated 2021).
# Marks after values point to notes of the source that are not given here.
# What was measured:
# AsPC-1 pancreatic cancer = assay: In vivo growth of AsPC-1 pancreatic cancer xenografts; parameters: species or system human; conditions: AsPC-1-RFP; 28 days after inoculation; Pter and/or CRC
# MelJuso melanoma cells = assay: Nrf2- and redox state-related enzyme activities and metabolites in MelJuso cells growing in vivo; parameters: species or system human; conditions: in vivo +Pter, day 35
# Description: Transfection of the Red Fluorescence Protein.
# First the pDsRed-2 vector (Clontech Laboratories Inc., Palo Alto, Calif.) was used, as previously described for A375 melanoma cells (Mena, S. et al. J Transl Med 10, 8 (2012)), to engineer A2058, MeWo and MelJuso melanoma clones stably expressing the RFP. Isolation of A2058-RFP, MeWo-RFP or MelJuso-RFP cells from the growing xenografts was performed by laser microdissection and high-performance cell sorting as previously described in detail (Mena, S. et al. J Transl Med 10, 8 (2012)).
# To measure enzyme activity, isolated tumor cells were homogenized in 0.1 M phosphate buffer (pH 7.2) at 4° C. GCL and GSS activities were measured as described previously (Obrador, E. et al. Hepatology 35, 74-81 (2002)). GPX (selenium dependent) activity was measured as described by Flohé and Gunzler (Flohe, L. & Gunzler, W. A. Methods Enzymol 105, 114-121 (1984)) using H2O2 as a substrate. GSR activity was determined as described by Akerboom and Sies (Akerboom, T. P. et al, Bull Eur Physiopathol Respir 17 Suppl, 221-227 (1981)). GGT activity was measured as described previously (Obrador, E. et al. Hepatology 35, 74-81 (2002)). GST activity was measured using an assay kit from Sigma. TXNRD activity, defined by the concentration of sodium-lipoate (disulfide) reduced to dehydrolipoate (dithiol) per milligram protein, was measured as previously described (Javvadi, P. et al. Cancer Res 70, 1941-1950 (2010)). SOD activity was measured as described by Flohé and Otting (Flohe, L. & Otting, F. Methods Enzymol 105, 93-104 (1984).) using 2 mM cyanide in the assay medium to distinguish mangano-type enzyme (SOD2) from the cuprozinc type (SOD1). CAT activity was analyzed as described by Aebi (Aebi, H. Methods Enzymol 105, 121-126 (1984)). NOX activity was measured by chemiluminescence following the methodology of Wind et al. (Wind, S. et al. Comparative pharmacology of chemically distinct NADPH oxidase inhibitors. Br J Pharmacol 161, 885-898 (2010)). Protein concentration was determined with the Pierce BCA protein assay (Fisher Scientific, Waltham, Mass.).
# Measurement of H2O2 and O2^⋅−.
# Quantitative measurement of H2O2 and flow cytometry determination of O2^⋅− generation were performed as previously described (Benlloch, M. et al. J Biol Chem 281, 69-79 (2006)).
# GSH, GSSG, NADP^+ and NADPH Determination.
# GSH and GSSG were determined, following procedures previously described (Obrador, E. et al. PLoS One 9, e96466 (2014)), by LC/MS using the same equipment described above for pterostilbene determination. Cell processing was performed according to published methodology, where rapid N-ethylmaleimide derivatization was used to prevent GSH auto-oxidation (Asensi, M. et al. Anal Biochem 217, 323-328 (1994)). NADP^+ and NADPH were quantitated using an assay kit from Sigma (St. Louis, Mo.).
# NORA = assay: Plasma NORA levels (ELISA) in melanoma-bearing mice; assay type: in vivo; conditions: melanoma-bearing mice treated vs not treated with Pter
# Source text: Measurement of ACTH, Corticosterone, and NORA Levels.
# Plasma levels of ACTH (Calbiotech, Inc., Spring Valley, Calif.), corticosterone (Kamiyama Biomedical Co., Seattle, Wash.), and NORA (IBL, Hamburg, Germany) were quantified by ELISA according to the instructions of the suppliers.
# A2058 melanoma = assay: In vivo growth of A2058 melanoma xenografts in nu/nu mice; parameters: species or system human
# [1] = system: glucocorticoid receptors (GR); assay: GR content of murine B16-F1 cells by [3H]-labeled ligand whole-cell binding assay; conditions: B16-F1-RFP tumors; day 15
# Description: Measurement of the GR Content of Cancer Cell Lines by [^3H]-Labeled Ligand Binding Assay. The GR content was measured by a whole-cell binding assay as previously described with some modifications (Harmon, J. M. & Thompson, E. B. […] Briefly 72 h-cultured melanoma cells were harvested, as indicated above, and resuspended in culture medium to a density of 5×10^6 cells/mL. […] Cells were then washed thrice in 5.0 mL of Hank's balanced salt solution and finally suspended in 1.5 mL of the same solution. […] The presence of at least 200-fold excess of unlabeled dexamethasone effectively competed out all of the binding of [^3H]-dexamethasone to specific GR. The binding of [^3H]-dexamethasone to specific GR was represented as the difference in disintegrations per minute per cell between those samples incubated with [^3H]-dexamethasone alone and those with at least 200-fold excess of unlabeled dexamethasone. Using the specific activity of [^3H]-dexamethasone, the number of receptors per cell was calculated, assuming that each receptor binds to one dexamethasone molecule.
# B16-F1 melanoma = assay: In vivo growth of murine B16-F1 melanoma; conditions: B16-F1-RFP; 15 days after inoculation; Pter 30 mg/kg i.v. every 24 h, ± CRC
# Description: FIG. 14. In vivo effect of Pter on tumor growth (A) and on corticosterone (B) and ACTH (C) levels in plasma of murine B16-F1 melanoma-bearing mice. Pter (30 mg/kg) was administered i.v. every 24 h for a period of 15 days, starting 3 days after tumor inoculation.
compound,measurement,setting,value
"COc1cc(/C=C/c2ccc(O)cc2)cc(OC)c1 [Pter, trans-3,5-dimethoxy-4′-hydroxystilbene]",Tumor vol.,AsPC-1 pancreatic cancer,523 ± 168* mm^3
same,CAT,MelJuso melanoma cells,1.1 ± 0.3 mU/10^6 cells
same,G6PDH,MelJuso melanoma cells,366 ± 63 mU/10^6 cells
same,GCL,MelJuso melanoma cells,49 ± 12 mU/10^6 cells
same,GGT,MelJuso melanoma cells,15.9 ± 3.5 mU/10^6 cells
same,GPX,MelJuso melanoma cells,2.1 ± 0.5 mU/10^6 cells
same,GSH,MelJuso melanoma cells,10.8 ± 2.9 nmol/10^6 cells
same,GSH/GSSG,MelJuso melanoma cells,108 ± 17
same,GSR,MelJuso melanoma cells,5.1 ± 1.0 mU/10^6 cells
same,GSS,MelJuso melanoma cells,7.8 ± 1.5 mU/10^6 cells
same,GSSG,MelJuso melanoma cells,0.1 ± 0.04 nmol/10^6 cells
same,GST,MelJuso melanoma cells,4.7 ± 1.3 mU/10^6 cells
same,H2O2,MelJuso melanoma cells,0.8 ± 0.2 nmol/10^6 cells × min
same,IDH,MelJuso melanoma cells,1.5 ± 0.4 U/10^6 cells
same,ME,MelJuso melanoma cells,25 ± 7 mU/10^6 cells
same,NADPH,MelJuso melanoma cells,0.05 ± 0.02 nmol/mg prot
same,NADPH/NADP^+,MelJuso melanoma cells,1.7 ± 0.3
same,NADP^+,MelJuso melanoma cells,0.03 ± 0.01 nmol/mg prot
same,NOX,MelJuso melanoma cells,142 ± 37 R.L.U./10^6 cells
same,O2^−,MelJuso melanoma cells,"5.0 ± 1.3 ΔFL1, a.u."
same,SOD1,MelJuso melanoma cells,0.4 ± 0.2 U/10^6 cells
same,SOD2,MelJuso melanoma cells,0.1 ± 0.05 U/10^6 cells
same,TXN,MelJuso melanoma cells,0.3 ± 0.1 μg/10^6 cells
same,TXNRD,MelJuso melanoma cells,0.6 ± 0.1 U/10^6 cells
same,NORA levels in plasma,NORA,not significantly different
same,inhibition of tumor growth,"A2058 melanoma; A2058, day 35, 30 mg Pter/kg i.v. every 48 h, vs controls",approx. 70%
same,Tumor vol.,"A2058 melanoma; A2058-RFP, 35 days after inoculation, Pter 30 mg/kg i.v. every 48 h and/or CRC infusion 0.3 μg/h",258 ± 66* mm^3
same,GR number (binding sites/cell),[1],112 ± 16 10^3 GR/cell
same,Tumor vol.,B16-F1 melanoma,790 ± 156* mm^3
